Experimental data from ChEMBL document CHEMBL1123994, “Excitatory amino acid neurotransmission” (J Med Chem, 1988).
Peptide text beside a SMILES is read from it.

Columns and labels:
[1] = Inhibition of specific brain peptidase
[2] = Ionization constant was determined; assay type: physicochemical
[3] = Inhibition of Cl- dependent binding sites of AP4 receptor labeled with [3H]- glutamic acid

Ki [3] [nM]	SMILES	IC50 [1] [nM]	pKa [2]
	N[C@@H](Cn1oc(=O)[nH]c1=O)C(=O)O [QUISQUALATE]	480	4.2
420	CC(=O)NC(CC(=O)O)C(=O)NC(CCC(=O)O)C(=O)O (stereo not drawn) (Ac-Asp-Glu-OH; configuration not given here)		
	NC(CN1CC(=O)NC1=O)C(=O)O (centres undefined)		8.2
